Assay results from patent US20210177881A1, “MEDICAMENT FOR PREVENTING AND/OR TREATING PAIN AND/OR FEVER, COMPOSITE PRODUCT AND USE THEREOF” (SHANGHAI TONGLIAN PHARMACEUTICAL CO., LTD., priority 2018, published 2021).

Experiments:
[1] = test system: rats of the LPS fever model; experiment: LPS-induced common fever model in rats; format: in vivo, Sprague Dawley rats; conditions: 30 mg/kg intragastric
Procedure: Male healthy Sprague Dawley rats (SPF), with a weight of 220-260 g, purchased from Liaoning Changsheng Biotechnology Co., Ltd., with a license number of SCXK (Liao) 2015-0001. […] Sodium chloride injection ([…], 500 mL): (Shijiazhuang No.4 Pharmaceutical Co., Ltd), Batch number: 101217406; 0.9% sodium chloride injection was dissolved and diluted to 1 mg/ml, then packed in EP tubes and stored at −80 DEG C. for later use; immediately before use, it was diluted with 0.9% sodium chloride injection into a sterile injection of 10 μg /ml(100 μg /kg). Male SD rats, with a weight of 220-260 g, were fed adaptively for 3 days, ate food and drank water freely with 12 hours of day-night circle. […] Each group was administrated with the drug based on 1 ml/100 g body weight by intragastric administration.

[2] = test system: rats of the dry yeast fever model; experiment: Common fever model of rats induced by dry yeast; format: in vivo; conditions: 30 mg/kg intragastric
Procedure: Male SD rats, with a weight of 220-260 g, were fed adaptively for 3 days, ate food and drank water freely with 12 hours of day-night circle. […] Each group was administrated with the drug based on 1 ml/100 g body weight by intragastric administration. […] Operating steps: except that the LPS in Experiment 1 was replaced by the dry yeast, other experimental operating steps and dosage selections were the same as those in Experiment 1.

[3] = test system: rats with tibial cancer pain; experiment: van Frey mechanical pain threshold in rats with tibial cancer pain (Walker256); format: in vivo, rat
Procedure: Walker rat breast cancer cells were purchased from Shanghai Institute of Biomedical Engineering. The abdominal cavity of female Wistar rats of 70-80 g was inoculated with 1 ml of ascites tumor (about 2×10^7 cells /ml). After 7-10 days, 5 ml of ascites was extracted and centrifuged for 3 minutes (1300 rpm). After precipitation, washing was performed with 10 ml PBS, and then centrifuged and precipitated again. Then, resuspending was performed with PBS, counting was performed, the cell concentration was adjusted to 1×10^7 cells/ml by PBS and placed in an ice box for later use.
Rats were anesthetized by intraperitoneal injection of 10% chlorate hydrate (4 ml/kg body weight), a skin was prepared at the right knee joint, and the skin was disinfected with 75% alcohol. The knee joint was fixed with the left hand to make the skin on its surface tense. A hole with a depth about 1 cm was drilled along the longitudinal axis of tibia at the medial edge of patellar ligament of the knee joint with a 7# needle. Then, a microsampler with tumor cells (before injection, 1 μl of air, 2 μl of gelatin sponge aqueous solution, 1 μl of air, 4 μl of tumor cells or PBS were inhaled in turn) was used, and 4 μl of tumor cells was injected into the tibia bone marrow cavity; The rats in the control group were injected with the same amount of PBS, and finally all of them were sealed with 2 μl of gel sponge solution. After injection, the needles were kept for 1 minute to prevent the injection from oozing out.
Rats were divided into two groups: a PBS injection control group and a Walker256 model group. The radiation paw withdrawal latency (PWL) was measured before modeling as the basic pain threshold, and the PWL was measured every other day after modeling as the thermal hyperalgesia threshold. At the same time, the mechanical pain caused by von Frey filament was measured. The threshold of mechanical pain was measured before modeling as the basic pain threshold, and the threshold of mechanical allodynia was measured every other day after modeling.
After successfully establishing the model of tibia cancer pain, continuous intragastric administration was performed for 12 days. The rats in the model group were intragastrically given the same volume of normal saline.

mice [4] = experiment: Analgesic experiment of writhing method in mice (acetic acid); format: in vivo, Kunming mice; conditions: 15 mg/kg once on the day of the experiment
mice [5] = experiment: Analgesia experiment on a hot plate in mice; format: in vivo, Kunming mice; conditions: 15 mg/kg
Source text: The mouse hot plate method is a classic method for screening analgesics. Its principle is to put the mouse on a hot plate heated to a constant temperature of (55±0.1 DEG C.) in advance, and when the foot of the mouse is stimulated by the hot plate to produce pain, the time required for foot licking is taken as the pain threshold, which is taken as the observation index, and the changes of threshold before and after medication are compared to evaluate the analgesic effect.
Before the experiment, the mice in each group were given intragastric administration. The mice in the blank control group were given the same volume of normal saline every day for 3 consecutive days.
The mice were put on a hot plate pain meter heated to 55 DEG C. in advance, and the time from putting into the hot plate to licking hind feet was recorded with a stopwatch as the pain threshold of the mice. […] It was measured once at 30, 60, 90 and 120 min after administration. After the end of the experiment, the percentage of pain threshold increase was calculated according to the measured average value of pain threshold. The percentage of pain threshold increase %=(an average pain threshold after administration−an average pain threshold before administration)÷the average pain threshold before administration×100%.

[6] = literature reports; cited from earlier work
[7] = 15 mg/kg on the last day, same side

Molecule: CC(C)Cc1ccc(C(C)C(=O)O)cc1 (centres unmarked) [ibuprofen, Ibuprofen]
- after administration ΔT ([1]; 1 h): 0.27 ± 0.27 °C
- after administration ΔT ([1]; 2 h): 0.33 ± 0.43 °C
- after administration ΔT ([1]; 4 h): 0.34 ± 0.38 °C
- after administration ΔT ([1]; 6 h): 1.23 ± 0.24 °C
- after administration ΔT ([1]; 8 h): 1.32 ± 0.24 °C
- after administration ΔT ([1]; 10 h): 1.23 ± 0.39 °C
- after administration ΔT ([2]; 1 h): 0.26 ± 0.26 °C
- after administration ΔT ([2]; 2 h): 0.40 ± 0.31 °C
- after administration ΔT ([2]; 4 h): 0.54 ± 0.38 °C

Molecule: CN1CC[C@]23c4c5ccc(O)c4O[C@H]2[C@@H](O)C=C[C@H]3[C@H]1C5.Cl [positive control, morphine hydrochloride]
- analgesic rate, opposite side ([3]; 15 mg/kg on the last day): 133.3%
- van Frey mechanical pain threshold, opposite side ([3]; 15 mg/kg on the last day): 6.3 ± 0.5 g
- analgesic rate, same side [3, 7]: 205.5%
- van Frey mechanical pain threshold, same side [3, 7]: 5.5 ± 0.2 g
- analgesic rate, opposite side ([3]; 80 mg/kg intragastric, 12 days): 125.9%
- van Frey mechanical pain threshold, opposite side ([3]; 80 mg/kg intragastric, 12 days): 6.1 ± 0.2 g
- van Frey mechanical pain threshold, same side ([3]; 80 mg/kg intragastric, 12 days, same side): 5.2 ± 0.6 g
- analgesic rate (mice [4]): 45.83%
- times of writhing (mice [4]): 30.17 ± 6.14 n
- Percentage of pain threshold increase (mice [5]; 30 min): 68.11%
- Percentage of pain threshold increase (mice [5]; 60 min): 54.01%
- Percentage of pain threshold increase (mice [5]; 90 min): 51.90%
- Percentage of pain threshold increase (mice [5]; 120 min): 38.17%

Molecule: spiramycin
- absolute oral bioavailability [6]: 30-40%
